Results on 2 compounds are retold here after paper PMC9263537 (Pharmacology Research & Perspectives, 2022).

Several values for one entry are separate records, joined by “and”; a condition that tells them apart may be missing. Equal values may be shown once. Read-outs that look alike come from different tables or passages of the source.

For series [1] the following is noted: mean population model parameter; cited from earlier work.
The conditions of series [2]: immediate release tablets, cited from earlier work.
For series [3] the following is noted: paracetamol alone vs with semaglutide; cited from earlier work.
The mark [4] stands for this setting: final model with semaglutide covariate.
Where [5] appears, read: model without semaglutide covariate.
The mark [6] stands for this setting: semaglutide 1.0 mg s.c. once weekly at steady state.
Setting [7] is: young adults, body weight 62–84 kg.

`CC(C)c1c(C(=O)Nc2ccccc2)c(-c2ccccc2)c(-c2ccc(F)cc2)n1CC[C@@H](O)C[C@@H](O)CC(=O)O` [atorvastatin]: the ka in series [1] is listed as 3.5 h^‐1. Further, the T50 estimate (atorvastatin with semaglutide) was 83 min. For the same compound, the T50 (atorvastatin with semaglutide (Figure 8)) was found to be 1.38 h. Besides, the T50 estimate (atorvastatin without semaglutide) was 16 min. Besides, for the setting “bootstrap 1000 replicates”, the “ka (Placebo), Bootstrap mean [95%CI]” value is 6.56 [3.29–12.1] h^−1; the “ktr (Placebo), Bootstrap mean [95%CI]” value was 10.4 [4.48–44.0] h^−1; the “Θkacovariate, Bootstrap mean [95%CI]” value was 0.821 [0.649–0.925]; the “Θktrcovariate, Bootstrap mean [95%CI]” value was 0.820 [0.629–0.972]. Besides, where the note is “bootstrap 1000 replicates”, the “ω^2 Ka, Bootstrap mean [95%CI]” value is 2.21 [1.41–3.32] and the “ω^2 Ktr, Bootstrap mean [95%CI]” value was 1.82 [0.390–3.17]. Moreover, under setting [4], the “Between subject variability ω^2 Ka, Estimates” value is recorded as 2.03 and the “Between subject variability ω^2 Ktr, Estimates” value is on record as 1.82. Besides, the “Θkacovariate, Estimates” value (fractional reduction of ka with semaglutide (dKadplacebo)) is 0.829. In addition, where the note is “fractional reduction of ktr with semaglutide (dKtrdplacebo)”, the “Θktrcovariate, Estimates” value is listed as 0.791. Also, under setting [5], the “BSV variance (Omega^2) for ka before semaglutide covariate” value came to 3.29 and the “BSV variance (Omega^2) for ktr before semaglutide covariate” value was 3.19. Besides, under setting [6], the “ka when co-administered with semaglutide” value was 0.986 h⁻¹ and the “ktr when co-administered with semaglutide” value came out at 1.52 h⁻¹. For the same compound, the “ktr (Placebo), Estimates” value (transit compartment rate constant, without semaglutide) is 7.3 h⁻¹ and 7.28 h⁻¹. Further, where the note is “with vs without semaglutide”, the “decrease of ka when co-administered with semaglutide” value amounted to 83% and the “decrease of ktr when co-administered with semaglutide” value is on record as 79%.
Take `CC(=O)Nc1ccc(O)cc1` [paracetamol]: in series [2], the ka was 4.33 h⁻¹. Besides, in series [2] (setting [7]), the V1/F is reported as 30.7 L and the V2/F is reported as 19.9 L. In addition, in series [3], the “alteration in paracetamol AUC0‐5h” value is “no significant alteration”.
